Assay results: patent publication US6368788B1 (priority 1987, dated 2002)
Marks after values point to notes of the source that are not given here.

Assays:
[1] = system: respiratory viral infections; experiment: Nose, ear and throat infections (acute respiratory disease); set-up: species or system human; conditions: in vivo
Method: One hundred eighty six subjects (186) with diagnosed acute respiratory disease, including upper airway diseases and viral infections, were treated with L-Glu-L-Trp. A control group consisted of 87 untreated subjects. L-Glu-L-Trp was administered daily im or intranasally at a dosage of 100 μg on each of 3-7 consecutive days. […] Secondary infectious complications were diminished in the treated individuals, and the length of time that medical follow-up was required was also diminished.

influenza = system: influenza; set-up: species or system human; conditions: in vivo
HIV = experiment: HIV-infected individuals: comparative studies with TPI; set-up: species or system human; conditions: in vivo
Method: In separate studies, a total of 21 HIV-infected individuals were studied, including full-blown syndrome, prodromal, and pre-AIDS afflicted individuals who were treated with Thympentin. Thympentin and TPI are thymic gland peptide extracts previously disclosed in the scientific literature.

[2] = Acute osteomyelitis / soft tissue inflammation in children (Protocol C); format: in vivo, human
Method: Seventeen hospitalized children (10 boys and 7 girls) were entered into this protocol: 6 with acute inflammatory diseases of soft tissues (abscesses, phlegmons), 4 with odotogenous osteomyelitis of the jaw, and 7 with hematogenous osteomyelitis of the flat and tubular bones. In 11 children, the course of the illness was acute and in 6 it was subacute and chronic.
L-Glu-L-Trp was administered in combination therapy with conventional antibiotic therapies. Where necessary, surgery was performed to drain infectious foci in the jaw or soft tissues, affected teeth were extracted, and for osteomyelitis a port was drilled for infusion of antibiotics. Physical examination and laboratory testing was conducted before administering L-Glu-L-Trp and 2-3 days after the treatment.
Laboratory tests were conducted to determine clinical chemistry and protein values prior to and after therapy (i.e., including the concentrations of bilirubin, creatinine, albumin, cholesterol, urea nitrogen, glucose, protein, chloride, potassium, phosphorus, calcium, sodium, alkaline phosphatase, α1-orosomucoid, α2-macroglobulin, prealbumin, ceruloplasmin, and transferrin). While urea nitrogen and cholesterol decreased slightly after therapy, these and all other changes observed after L-Glu-L-Trp treatment were not statistically significant.

[3] = system: E-rosette forming (CD2^+) T-lymphocytes; experiment: In vitro incubation of the children's lymphocytes: E-rosette forming (CD2+) T-lymphocytes; format: cell-based, human
Staphylococcus aureus [4] = experiment: Survival after Staphylococcus aureus peritonitis, therapeutic treatment 1 hour after challenge; format: in vivo, mice; conditions: for Percentage Survivors: ip therapeutic 1 hour after challenge
Method: EXAMPLES 32-34, above, test substance (i.e., L-Glu-L-Trp alone or in combination with antibiotic, or antibiotic alone) was injected sc, ip, po one hour after the bacterial challenge.

Pneumocystis carinii = Pneumocystis carinii lung infection in cortisone-immunocompromised rats; format: in vivo; conditions: for Lung (bacteria): mean ± S.E., magnification 400X; for Lymphocytes / Neutrophils / Total Leukocytes / Lymphocytes (% Normal) / Neutrophils (% normal) / Total Leukocytes (% normal): peripheral blood at 79 days; for Lymphocytes (% Normal) / Neutrophils (% normal) / Total Leukocytes (% normal): % of day 0
Method: Corticosteroids were administered to rats to induce an immunocompromised state in which an opportunistic infection with Pneumocystis carinii could be established. The immunocompromised state was induced by administering cortisone acetate im twice weekly at a dose of 25 mg/kg over the entire 12 week course of the study. Pneumocystis carinii lung infection was initiated by intranasal instillation on day 0. Prophylactic tetracycline was administered po in the drinking water ([…]), and peripheral blood differential counts were monitored over the next 12 weeks. In control (untreated) Pneumocystis-infected animals, differential counts, body weight, and lymphocyte counts began dropping at about 30-39 days and lung infection was evident histologically by about day 60-69. At day 80, tetracycline treatment was discontinued in all groups. By day 80 in this animal model, mean body weight of the animals had dropped by approximately 30% from the values recorded on day 0. Groups were comprised of 15 rats each.
L-Glu-L-Trp treatments were administered according to the following protocol: 10 consecutive daily im injections of 10 μg/kg or 100 μg/kg of L-Glu-L-Trp on days 0 through 9, 30 through 39, and 60 through 69 of the study. Differential cell counts in peripheral blood (TABLE 80) and lung histology (i.e., with enumeration of the number of P. carinii/10 microscopic fields—at 400× magnification) were used to monitor the course of the opportunistic infection.

Staphylococcus aureus [5] = experiment: Survival after acute peritonitis with LD100 dose of antibiotic-resistant Staphylococcus aureus, prophylactic treatment; conditions: for Percentage Survivors: ip prophylactic
[6] = children, After L-Glu-L-Trp Therapy (2-3 days after treatment)
[7] = 24 hours, Glu-Trp dose 10 μg/kg (alone or + Ampicillin)
[8] = 24 hours, Glu-Trp dose 100 μg/kg (alone or + Ampicillin)
[9] = 48 hours, Glu-Trp dose 10 μg/kg (alone or + Ampicillin)
[10] = 48 hours, Glu-Trp dose 100 μg/kg (alone or + Ampicillin)
[11] = 72 hours, Glu-Trp dose 10 μg/kg (alone or + Ampicillin)
[12] = 72 hours, Glu-Trp dose 100 μg/kg (alone or + Ampicillin)

L-Glu-L-Trp
Clinical outcome [1]: milder course of respiratory viral infections | Clinical outcome (influenza): significantly decreased the incidence of sickness in the vaccinated subjects for a period of 12 months | Comparative effectiveness (HIV): more effective than TPI in restoring normal immunologic indices, T-cell functional activity, and T4/T8 ratios | B-Lymphocytes: % of PBL [2, 6]: 15.1 ± 3.32 % of PBL | B-Lymphocytes: No. [2, 6]: 0.41 ± 0.11 10^9/L | C3 [2, 6]: 0.72 ± 0.05 g/L | IgA [2, 6]: 1.68 ± 0.18 g/L | IgG [2, 6]: 14.4 ± 1.31 g/L | IgM [2, 6]: 1.64 ± 0.26 g/L | LMIR: % Con A [2, 6]: 49.7 ± 13.7 % | LMIR: % PHA [2, 6]: 47.7 ± 11.2 % | Leukocytes [2, 6]: 7.0 ± 0.4^† 10^9/L | Lymphocytes: % of PBL [2, 6]: 43 ± 3.61 % of PBL | Lymphocytes: No. [2, 6]: 3.15 ± 0.41 10^9/L | Neutrophils [2, 6]: 3.4 ± 0.33 ×10^9/L | Neutrophils: % PBL [2, 6]: 50 ± 4.8 % PBL | Null-Lymphocytes: % of PBL [2, 6]: 18.7 ± 4.68 % of PBL | Null-Lymphocytes: No. [2, 6]: 0.42 ± 0.11^† 10^9/L | T-Lymphocytes: % of Lym [2, 6]: 66.2 ± 2.57 % of Lym | T-Lymphocytes: No. [2, 6]: 1.7 ± 0.3 10^9/L | T-helper (Etr-RFC): % of Lym [2, 6]: 57.3 ± 6.34 % of Lym | T-helper (Etr-RFC): No. [2, 6]: 1.4 ± 0.24 10^9/L | T-suppressor: % of Lym [2, 6]: 8.8 ± 5.4 % of Lym | T-suppressor: No. [2, 6]: 0.3 ± 0.2 10^9/L | Wounds cleaned and granulated earlier than usual ([2]; in vivo): 2 to 3 days | Percentage of E-rosette forming (CD2+) T-lymphocytes [3]: increase in the percentage of E-rosette forming (CD2^+) T-lymphocytes | Percentage Survivors (Staphylococcus aureus [4]; 24 hours, Glu-Trp dose 0.01 μg/kg): 16.7% | Percentage Survivors (Staphylococcus aureus [4]; 24 hours, Glu-Trp dose 0.1 μg/kg): 5.6*† % | Percentage Survivors (Staphylococcus aureus [4]; 24 hours, Glu-Trp dose 1 μg/kg): 27.8† % | Percentage Survivors (Staphylococcus aureus [4]; [7]): 66.7* % | Percentage Survivors (Staphylococcus aureus [4]; [8]): 66.7* % | Percentage Survivors (Staphylococcus aureus [4]; 48 hours, Glu-Trp dose 0.01 μg/kg): 0% | Percentage Survivors (Staphylococcus aureus [4]; 48 hours, Glu-Trp dose 0.1 μg/kg): 0† % | Percentage Survivors (Staphylococcus aureus [4]; 48 hours, Glu-Trp dose 1 μg/kg): 5.6† % | Percentage Survivors (Staphylococcus aureus [4]; [9]): 38.9* % | Percentage Survivors (Staphylococcus aureus [4]; [10]): 55.6* % | Percentage Survivors (Staphylococcus aureus [4]; 72 hours, Glu-Trp dose 0.01 μg/kg): 0% | Percentage Survivors (Staphylococcus aureus [4]; 72 hours, Glu-Trp dose 0.1 μg/kg): 0% | Percentage Survivors (Staphylococcus aureus [4]; 72 hours, Glu-Trp dose 1 μg/kg): 0† % | Percentage Survivors (Staphylococcus aureus [4]; [11]): 16.7* % | Percentage Survivors (Staphylococcus aureus [4]; [12]): 33.3* % | Survival (Staphylococcus aureus [4]; ip, 1 hour after challenge): dose-response relationship between the amount of L-Glu-L-Trp administered ip and the survival of animals | Numbers of lung bacteria, % of saline treated control (Pneumocystis carinii; 10 μg/kg): about 33% | Lung (bacteria) (Pneumocystis carinii; 10 μg/kg im): 53 ± 32 P. carinii bacteria per 10 sections | Numbers of lung bacteria, % of saline treated control (Pneumocystis carinii; 100 μg/kg): ~43% | Lung (bacteria) (Pneumocystis carinii; 100 μg/kg im): 70 ± 33 P. carinii bacteria per 10 sections | Leukocyte counts, % of normal (Pneumocystis carinii; day 79): 45-47% | Lymphocyte counts, % of normal (Pneumocystis carinii; day 79): 45% | Lymphocytes (Pneumocystis carinii; 10 μg/kg im): 4.7 ± 1.2 ×10^6/ml | Neutrophils (Pneumocystis carinii; 10 μg/kg im): 2.0 ± 0.7 ×10^6/ml | Total Leukocytes (Pneumocystis carinii; 10 μg/kg im): 8.1 ± 2.3 ×10^6/ml | Lymphocytes (% Normal) (Pneumocystis carinii; 10 μg/kg im): 45% | Neutrophils (% normal) (Pneumocystis carinii; 10 μg/kg im): 41% | Total Leukocytes (% normal) (Pneumocystis carinii; 10 μg/kg im): 47% | Lymphocytes (Pneumocystis carinii; 100 μg/kg im): 4.7 ± 1.4 ×10^6/ml | Neutrophils (Pneumocystis carinii; 100 μg/kg im): 1.5 ± 0.5 ×10^6/ml | Total Leukocytes (Pneumocystis carinii; 100 μg/kg im): 7.8 ± 1.8 ×10^6/ml | Lymphocytes (% Normal) (Pneumocystis carinii; 100 μg/kg im): 45% | Neutrophils (% normal) (Pneumocystis carinii; 100 μg/kg im): 31% | Total Leukocytes (% normal) (Pneumocystis carinii; 100 μg/kg im): 45% | Survival by time of single prophylactic ip injection (Staphylococcus aureus [5]; 24 hours before challenge): more surviving animals than if pretreatment was at 1, 48, or 72 hrs | Percentage Survivors (Staphylococcus aureus [5]; 24 hours, Glu-Trp dose 0.01 μg/kg (alone or + Ampicillin)): 31.5% | Percentage Survivors (Staphylococcus aureus [5]; 24 hours, Glu-Trp dose 0.1 μg/kg (alone or + Ampicillin)): 33.3% | Percentage Survivors (Staphylococcus aureus [5]; 24 hours, Glu-Trp dose 1 μg/kg (alone or + Ampicillin)): 50.0* % | Percentage Survivors (Staphylococcus aureus [5]; [7]): 83.3* % | Percentage Survivors (Staphylococcus aureus [5]; [8]): 88.9* % | Percentage Survivors (Staphylococcus aureus [5]; 24 hours, dose cell empty (line after 100 μg/kg)): 83.3* % | Percentage Survivors (Staphylococcus aureus [5]; 48 hours, Glu-Trp dose 0.01 μg/kg (alone or + Ampicillin)): 3.7% | Percentage Survivors (Staphylococcus aureus [5]; 48 hours, Glu-Trp dose 0.1 μg/kg (alone or + Ampicillin)): 0% | Percentage Survivors (Staphylococcus aureus [5]; 48 hours, Glu-Trp dose 1 μg/kg (alone or + Ampicillin)): 27.8* % | Percentage Survivors (Staphylococcus aureus [5]; [9]): 50.0* % | Percentage Survivors (Staphylococcus aureus [5]; [10]): 61.1* % | Percentage Survivors (Staphylococcus aureus [5]; 48 hours, dose cell empty (line after 100 μg/kg)): 72.2* % | Percentage Survivors (Staphylococcus aureus [5]; 72 hours, Glu-Trp dose 0.01 μg/kg (alone or + Ampicillin)): 0% | Percentage Survivors (Staphylococcus aureus [5]; 72 hours, Glu-Trp dose 0.1 μg/kg (alone or + Ampicillin)): 0% | Percentage Survivors (Staphylococcus aureus [5]; 72 hours, Glu-Trp dose 1 μg/kg (alone or + Ampicillin)): 5.6% | Percentage Survivors (Staphylococcus aureus [5]; [11]): 33.3* % | Percentage Survivors (Staphylococcus aureus [5]; [12]): 50.0* % | Percentage Survivors (Staphylococcus aureus [5]; 72 hours, dose cell empty (line after 100 μg/kg)): 55.6* % | Survival (Staphylococcus aureus [5]; ip or im routes): increased the percentage of animals surviving challenge with a lethal number of Staphylococcus aureus | Survival, multiple treatment regimen at 72, 48 and 24 hrs (Staphylococcus aureus [5]; single agent or combined therapy): significantly higher (p<0.05) survival than a single treatment dose
